Measurements taken from US20250296953A1, “3,4-THIAZOLO-STEROIDS AND METHODS OF MAKING AND USING THE SAME” (Arkansas State University - Jonesboro, priority 2018, published 2025).
Like-named read-outs stand apart in the source and are kept apart here.

Tests used:
[1] = test system: 60 different human tumor cell lines; details: five dose; for CC50: read-out: LC50
glioblastoma (SF-295) = assay: NCI 60 five dose screen; details: SF-295 (CNS Cancer), five dose
gliosarcoma (SF-539) = assay: NCI 60 five dose screen; details: SF-539 (CNS Cancer), five dose
RPMI-8226 = assay: NCI 60 five dose screen; details: RPMI-8226 (Leukemia), five dose

Question: With C[C@]12CCc3nc(Nc4ccc(O)cc4)sc3C1=CC[C@@H]1[C@@H]2CC[C@]2(C)C(=O)CC[C@@H]12 [IIa.35] as the compound, how does the GI50 ([1]; SK-MEL-2 (Melanoma)) read?
Answer: 6.98 µM

Question: And the TGI ([1]; SK-MEL-2 (Melanoma))?
Answer: >1.00E−4

Question: And the GI50 ([1]; SK-MEL-5 (Melanoma))?
Answer: 4.33 µM

Question: What about the TGI ([1]; SK-MEL-5 (Melanoma)) of the same compound?
Answer: 3.19E−5

Question: And the GI50 ([1]; SK-MEL-28 (Melanoma))?
Answer: 2.08 µM

Question: What about the TGI ([1]; SK-MEL-28 (Melanoma)) of the same compound?
Answer: 4.75E−6

Question: What about the GI50 ([1]; SK-OV-3 (Ovarian Cancer)) of the same compound?
Answer: 12.3 µM

Question: What about the TGI ([1]; SK-OV-3 (Ovarian Cancer)) of the same compound?
Answer: >1.00E−4

Question: What about the GI50 ([1]; SN12C (Renal Cancer)) of the same compound?
Answer: 2.91 µM

Question: What about the TGI ([1]; SN12C (Renal Cancer)) of the same compound?
Answer: >1.00E−4

Question: And the GI50 ([1]; SNB-19 (CNS Cancer))?
Answer: 10.9 µM

Question: And the TGI ([1]; SNB-19 (CNS Cancer))?
Answer: >1.00E−4

Question: And the GI50 ([1]; SNB-75 (CNS Cancer))?
Answer: 2.76 µM

Question: What about the TGI ([1]; SNB-75 (CNS Cancer)) of the same compound?
Answer: >1.00E−4

Question: And the GI50 ([1]; SW-620 (Colon Cancer))?
Answer: 2.08 µM

Question: What about the TGI ([1]; SW-620 (Colon Cancer)) of the same compound?
Answer: 4.73E−6

Question: And the GI50 ([1]; T-47D (Breast Cancer))?
Answer: 1.95 µM

Question: What about the TGI ([1]; T-47D (Breast Cancer)) of the same compound?
Answer: 5.03E−6

Question: And the GI50 ([1]; TK-10 (Renal Cancer))?
Answer: 2.01 µM

Question: And the TGI ([1]; TK-10 (Renal Cancer))?
Answer: 4.40E−6

Question: What about the GI50 ([1]; U251 (CNS Cancer)) of the same compound?
Answer: 3.06 µM

Question: And the TGI ([1]; U251 (CNS Cancer))?
Answer: 2.19E−5

Question: What about the GI50 ([1]; UACC-62 (Melanoma)) of the same compound?
Answer: 1.76 µM

Question: And the TGI ([1]; UACC-62 (Melanoma))?
Answer: 4.02E−6

Question: What about the GI50 ([1]; UACC-257 (Melanoma)) of the same compound?
Answer: 1.86 µM

Question: And the TGI ([1]; UACC-257 (Melanoma))?
Answer: 4.62E−6

Question: What about the GI50 ([1]; UO-31 (Renal Cancer)) of the same compound?
Answer: 1.54 µM

Question: What about the TGI ([1]; UO-31 (Renal Cancer)) of the same compound?
Answer: 2.90E−6

Question: What about the CC50 ([1]; A498 (Renal Cancer)) of the same compound?
Answer: > 100 µM

Question: And the CC50 ([1]; A549/ATCC (Non-small Cell Lung Cancer))?
Answer: > 100 µM

Question: What about the CC50 ([1]; ACHN (Renal Cancer)) of the same compound?
Answer: 36.6 µM

Question: What about the CC50 ([1]; BT-549 (Breast Cancer)) of the same compound?
Answer: > 100 µM

Question: And the CC50 ([1]; CCRF-CEM (Leukemia))?
Answer: > 100 µM

Question: What about the CC50 ([1]; COLO 205 (Colon Cancer)) of the same compound?
Answer: 7.61 µM

Question: What about the CC50 ([1]; EKVX (Non-small Cell Lung Cancer)) of the same compound?
Answer: > 100 µM

Question: What about the CC50 ([1]; HCC-2998 (Colon Cancer)) of the same compound?
Answer: > 100 µM

Question: And the CC50 ([1]; HCT-15 (Colon Cancer))?
Answer: > 100 µM

Question: And the CC50 ([1]; HL-60(TB) (Leukemia))?
Answer: > 100 µM

Question: What about the CC50 ([1]; HOP-62 (Non-small Cell Lung Cancer)) of the same compound?
Answer: > 100 µM

Question: What about the CC50 ([1]; HOP-92 (Non-small Cell Lung Cancer)) of the same compound?
Answer: > 100 µM

Question: And the CC50 ([1]; HT29 (Colon Cancer))?
Answer: > 100 µM

Question: What about the CC50 ([1]; IGROV1 (Ovarian Cancer)) of the same compound?
Answer: > 100 µM

Question: And the CC50 ([1]; K-562 (Leukemia))?
Answer: > 100 µM

Question: What about the CC50 ([1]; M14 (Melanoma)) of the same compound?
Answer: > 100 µM

Question: What about the CC50 ([1]; MALME-3M (Melanoma)) of the same compound?
Answer: 8.96 µM

Question: What about the CC50 ([1]; MCF7 (Breast Cancer)) of the same compound?
Answer: > 100 µM

Question: What about the CC50 ([1]; MDA-MB-231/ATCC (Breast Cancer)) of the same compound?
Answer: > 100 µM

Question: What about the CC50 ([1]; MDA-MB-435 (Melanoma)) of the same compound?
Answer: > 100 µM

Question: And the CC50 ([1]; MDA-MB-468 (Breast Cancer))?
Answer: > 100 µM

Question: And the CC50 ([1]; MOLT-4 (Leukemia))?
Answer: > 100 µM

Question: What about the CC50 ([1]; NCI-H23 (Non-small Cell Lung Cancer)) of the same compound?
Answer: > 100 µM

Question: And the CC50 ([1]; NCI-H226 (Non-small Cell Lung Cancer))?
Answer: > 100 µM

Question: What about the CC50 ([1]; NCI-H460 (Non-small Cell Lung Cancer)) of the same compound?
Answer: > 100 µM

Question: And the CC50 ([1]; NCI-H522 (Non-small Cell Lung Cancer))?
Answer: 6.18 µM

Question: And the CC50 ([1]; NCI/ADR-RES (Ovarian Cancer))?
Answer: > 100 µM

Question: What about the CC50 ([1]; OVCAR-3 (Ovarian Cancer)) of the same compound?
Answer: 6.7 µM

Question: And the CC50 ([1]; OVCAR-4 (Ovarian Cancer))?
Answer: > 100 µM

Question: What about the CC50 ([1]; OVCAR-5 (Ovarian Cancer)) of the same compound?
Answer: > 100 µM

Question: What about the CC50 ([1]; OVCAR-8 (Ovarian Cancer)) of the same compound?
Answer: > 100 µM

Question: What about the CC50 ([1]; PC-3 (Prostate Cancer)) of the same compound?
Answer: > 100 µM

Question: What about the CC50 ([1]; SF-268 (CNS Cancer)) of the same compound?
Answer: > 100 µM

Question: And the CC50 ([1]; SK-MEL-2 (Melanoma))?
Answer: > 100 µM

Question: And the CC50 ([1]; SK-MEL-5 (Melanoma))?
Answer: > 100 µM

Question: And the CC50 ([1]; SK-MEL-28 (Melanoma))?
Answer: > 100 µM

Question: What about the CC50 ([1]; SK-OV-3 (Ovarian Cancer)) of the same compound?
Answer: > 100 µM

Question: And the CC50 ([1]; SN12C (Renal Cancer))?
Answer: > 100 µM

Question: What about the CC50 ([1]; SNB-19 (CNS Cancer)) of the same compound?
Answer: > 100 µM

Question: What about the CC50 ([1]; SNB-75 (CNS Cancer)) of the same compound?
Answer: > 100 µM

Question: What about the CC50 ([1]; SW-620 (Colon Cancer)) of the same compound?
Answer: > 100 µM

Question: And the CC50 ([1]; T-47D (Breast Cancer))?
Answer: > 100 µM

Question: And the CC50 ([1]; TK-10 (Renal Cancer))?
Answer: 9.6 µM

Question: And the CC50 ([1]; U251 (CNS Cancer))?
Answer: > 100 µM

Question: And the CC50 ([1]; UACC-62 (Melanoma))?
Answer: 9.19 µM

Question: What about the CC50 ([1]; UACC-257 (Melanoma)) of the same compound?
Answer: > 100 µM

Question: And the CC50 ([1]; UO-31 (Renal Cancer))?
Answer: 9.49 µM

Question: What about the GI50 (glioblastoma (SF-295)) of the same compound?
Answer: 5.26 µM

Question: And the TGI (glioblastoma (SF-295))?
Answer: 3.59E−5

Question: And the CC50 (glioblastoma (SF-295); read-out: LC50)?
Answer: > 100 µM

Question: And the GI50 (gliosarcoma (SF-539))?
Answer: 1.76 µM

Question: And the TGI (gliosarcoma (SF-539))?
Answer: 3.59E−6

Question: And the CC50 (gliosarcoma (SF-539); read-out: LC50)?
Answer: 7.34 µM

Question: And the GI50 (RPMI-8226)?
Answer: 2.35 µM

Question: And the TGI (RPMI-8226)?
Answer: 7.07E−6

Question: What about the CC50 (RPMI-8226; read-out: LC50) of the same compound?
Answer: > 100 µM
